Like-named read-outs stand apart in the source and are kept apart here. One block for each substance: values may come before it. Where no end group is shown, it is not given here. [ ]: non-standard residue; d: D form.
Columns and labels:
HeLa = test: Internalization of covalent peptide-peroxidase conjugates; type: cell-based, human; conditions: 2 hours
Method: (§1) To evaluate more directly the penetration of the peptides, avoiding the avidin-peroxidase bias, some of the peptides in sequences SEQ ID NO: 25 to 48 were conjugated covalently with cysteine in the C-terminal position of the peptide to peroxidase. The peptides were coupled with peroxidase in the following way:
(§2) One mg of peroxidase activated with maleimide (Sigma) in 100 μl of sodium phosphate buffer, NaCl 0.15 M, EDTA 5 mM, had 1 mg of peptide added to it. After 2 hours at laboratory temperature, β-mercaptoethanol is added to a final concentration of 1.5 mM for 15 minutes. The uncoupled peptide is eliminated by centrifugation on ultrafiltration membranes (cut-off threshold=30,000 Daltons, Sartorius), followed by three washings in sodium phosphate buffer 0.1 M, pH 7.4 containing 0.15 M NaCl.
(§3) It appears that the higher the concentration of peptide-peroxidase conjugate in the culture medium, the more the quantity internalized increases. To compare the penetration of the conjugates by cell type, the cells from different lines were incubated with 0.2 μg/ml of peptide-peroxidase conjugate for 2 hours, and the quantity of peroxidase dosed in the lysates. Table 9 and Table 9B below give the results expressed in pg/10^3 cells. The quantity of each peptide internalized in the different lines generally varies only from single to double.

H1299 cells [1] = test: as above; type: cell-based, human; conditions: for Internalization of Peptide-peroxidase: H1299, 0.2 μg/ml conjugate; for Internalization of Peptide-peroxidase / quantity of peptide internalized: 2 hours
Method: as §1, §2
The H1299 cells are incubated for 2 hours with the conjugates at increasing concentrations of peptide-peroxidase in the culture medium, then washed with PBS. The cells are lysed and the quantity of peptide internalized is evaluated by the dosage of peroxidase in the lysate of the cells with reference to a curve established with peptide-peroxidase.
The quantity of peptide internalized (pg/10^3 cells), depending on the concentrations of conjugates in the culture medium, is shown in Table 8 below.
as §3

3T3 = test: as above; type: cell-based, mouse; conditions: 2 hours
Method: as §1, §2, §3

[2] = ELISA fixation of biotinylated peptides on sensitized plates; type: binding; conditions: read-out: avidity (Kd), quantity of peptides necessary to obtain 50% fixation, Chondroitin B; Table 5
[3] = as above; type: binding; conditions: read-out: avidity (Kd), quantity of peptides necessary to obtain 50% fixation, Chondroitin C; Table 5
[4] = as above; type: binding; conditions: read-out: avidity (Kd), quantity of peptides necessary to obtain 50% fixation, Chondroitin A; Table 5
cells = test: Penetration of biotinylated peptides inside cells (microscopy, S-PO coloration); type: cell-based; conditions: biotinylated peptides 50 to 6 μg/ml, 1-18 hours, revealed with S-PO
Method: The cells are cultivated in the presence of the different peptides carrying, on the N-terminal side, biotin in decreasing concentrations (50 to 6 μg/ml) in the culture medium for variable times (1-18 hours).
At the end of the culture, the cells are washed three times with PBS (0.15 M NaCl buffered with 0.01 M potassium phosphate buffer pH 7.4) then fixed 15 minutes in ethanol at −20° C. The penetration of the peptide is evaluated after incubation for 30 minutes with streptavidin conjugated with peroxidase (abbreviated S-PO for streptavidin-peroxidase). Then, the S-PO is eliminated, and the cells are washed. […] With the other peptides, positive colorations, but of variable intensity, were noted.

H1299 cells [5] = test: Internalization of biotinylated peptide/S-PO complexes; type: cell-based, human
Method: A biotinylated/S-PO peptide or biotinylated/A-PO complex (A-PO for avidin-peroxidase) is prepared extemporaneously in two ways:
1) either in a peptide: S-PO or A-PO molar ratio of 4:1 (for example, 1.4 μg of peptide with a molecular weight of 3500 to 10 μg of S-PO; the weight of S-PO used varies depending on the peptides since their molecular weights are different).
2) or in a peptide: S-PO or A-PO molar ratio of 25:1 (for example 1.7 μg of peptide with a molecular weight of 3500 to 1 μg of S-PO).
The complexes are prepared by incubating the biotinylated peptide with S-PO or A-PO in PBS in a volume of 5 to 10 μl for 15 minutes at laboratory temperature. They are then diluted in 1 ml of complete culture medium, filtered on a 0.2 micron membrane and incubated with the cells for 4 hours. The cells are then washed three times with PBS.
To study the penetration of the complexes under a microscope, the cells are fixed as before for 15 minutes in ethanol at −20° C., they are washed with PBS, and the activity of the internalized peroxidase is shown by diaminobenzidine in the presence of H2O2. To measure the quantity of peptide/S-PO or A-PO complexes internalized, the cells are trypsinized, transferred into microtubes and counted. They are washed twice by centrifugation, then the residue is suspended in 200 μl of lysis buffer (Tris buffer, 0.1 M, pH8, 0.5% Nonidet). After 15 minutes, the peroxidase contained in the lysis buffer is dosed onto 96-well plates with ortho-dianisidine and H2O2 by comparison with a standard curve for S-PO. The reading is taken at 450 nm. The quantity contained in the different samples is expressed in picograms (pg) per 10^4 cells.
Table 7 below reports the results of evaluating the influence of SEQ ID NO: 1 on the penetration of peptides coupled to SEQ ID NO: 1 into H1299 cells, where
Concentration a: 25 peptides to one molecule of S-PO (1 μg),
Concentration b: 4 peptides to one molecule of S-PO (10 μg).

[6] = ELISA fixation of biotinylated peptides on sensitized plates; type: binding; conditions: read-out: avidity (Kd), quantity of peptides necessary to obtain 50% fixation, Heparin, Table 5
Method: The capacity of peptides SEQ ID NO: 1 to 21 to attach themselves to DNA and heparin is evaluated on ELISA plates sensitized with DNA or heparin. Dilutions of biotinylated peptides are deposited on the plates and their fixation is shown using streptavidin conjugated with peroxidase. […] The avidity of each of the peptides for DNA or heparin is evaluated by the quantity (×10^−6 M) of peptides necessary to obtain 50% fixation.

[7] = Conc. a: 25 peptides to one molecule of S-PO (1 μg)
[8] = Conc. b: 4 peptides to one molecule of S-PO (10 μg)
[9] = peptide: S-PO complexes of 4:1, peptide concentration of 1 μg

Internalization of Peptide-peroxidase (HeLa; Table 9, 0.2 μg/ml conjugate): 2.5 pg/10^3 cells
Internalization of Peptide-peroxidase (3T3; Table 9, 0.2 μg/ml conjugate): 5.7 pg/10^3 cells
Substance: QGKSKREKKDRVF [SEQ ID NO: 37]
Internalization of Peptide-peroxidase (H1299 cells [1]; Table 9): 4.3 pg/10^3 cells
Kd [2]: 0.173 µM
Kd [3]: 0.093 µM
Kd [4]: 0.176 µM

Substance: SEQ ID NO: 5: Peptide containing SEQ ID NO: 1 and SEQ ID NO: 4 (VKRGLKLRQKYNKRAMDY; Homo sapiens - Mus musculus - Rattus norvegicus)
intracellular cytochemical coloration (cells): intense coloration
S-PO internalized (H1299 cells [5]; [7]): 100 pg/10^4 cells
S-PO internalized (H1299 cells [5]; [8]): 6250 pg/10^4 cells

Substance: SEQ ID NO: 17: Peptide reacting with heparin derived from human lipoprotein E (LRKRLLRD; listed as Homo sapiens)
intracellular cytochemical coloration (cells): do not give any positive intracellular cytochemical coloration
S-PO internalized (H1299 cells [5]; [9]): 3 pg/10^4 cells

Internalization of Peptide-peroxidase (HeLa; Table 9, 0.2 μg/ml conjugate): 2.1 pg/10^3 cells
Internalization of Peptide-peroxidase (3T3; Table 9, 0.2 μg/ml conjugate): 7.6 pg/10^3 cells
Substance: GLKKNGSCKRGPR [SEQ ID NO: 33]
Internalization of Peptide-peroxidase (H1299 cells [1]; Table 9): 3.6 pg/10^3 cells
Kd ([6]; listed as HBP8): 0.168 µM
Kd [2]: 0.26 µM
Kd [3]: 0.11 µM
Kd [4]: 0.225 µM

Internalization of Peptide-peroxidase (HeLa; Table 9, 0.2 μg/ml conjugate): 3.4 pg/10^3 cells
Internalization of Peptide-peroxidase (3T3; Table 9, 0.2 μg/ml conjugate): 9 pg/10^3 cells
Substance: YRSRKYSSWYYALKR [SEQ ID NO: 34]
percentage of quantity of peroxidase internalized compared to quantity deposited (H1299 cells [1]; 0.01 μg/ml): (0.01) %
percentage of quantity of peroxidase internalized compared to quantity deposited (H1299 cells [1]; 0.1 μg/ml): (1.4) %
percentage of quantity of peroxidase internalized compared to quantity deposited (H1299 cells [1]; 0.5 μg/ml): (8.14) %
percentage of quantity of peroxidase internalized compared to quantity deposited (H1299 cells [1]; 1 μg/ml): (10.9) %
Internalization of Peptide-peroxidase (H1299 cells [1]; Table 9): 3.8 pg/10^3 cells
quantity of peptide internalized (H1299 cells [1]; peptide-peroxidase 0.01 μg/ml): 0.002 pg/10^3 cells
quantity of peptide internalized (H1299 cells [1]; peptide-peroxidase 0.1 μg/ml): 1.4 pg/10^3 cells
quantity of peptide internalized (H1299 cells [1]; peptide-peroxidase 0.5 μg/ml): 40.7 pg/10^3 cells
quantity of peptide internalized (H1299 cells [1]; peptide-peroxidase 1 μg/ml): 109 pg/10^3 cells
Kd [6]: 0.045 µM
Kd [2]: 0.047 µM
Kd [3]: 0.025 µM
Kd [4]: 0.047 µM

Substance: SEQ ID NO: 7: Peptide containing SEQ ID NO: 1 and SEQ ID NO: 6 (VKRGLKLTYYSDTVKGRFTRQYNKRA; Homo sapien - Mus musculus - Rattus norvegicus)
intracellular cytochemical coloration (cells): intense coloration
S-PO internalized (H1299 cells [5]; [7]): 240 pg/10^4 cells
S-PO internalized (H1299 cells [5]; [8]): 220 pg/10^4 cells

Substance: SEQ ID NO: 19: Dimer of SEQ ID NO: 18 (KSRKKSRK; not fully specified; listed as Homo sapiens)
intracellular cytochemical coloration (cells): Faint coloration
S-PO internalized (H1299 cells [5]; [9]): 167 pg/10^4 cells

Substance: SEQ ID NO: 6: Peptide containing part of CDR2 and CDR3 regions of monoclonal murine antibody F4.1 (TYYSDTVKGRFTRQKYNKRA; Mus musculus x Rattus norvegicus)
intracellular cytochemical coloration (cells): Faint coloration
S-PO internalized (H1299 cells [5]; [7]): 1 pg/10^4 cells
S-PO internalized (H1299 cells [5]; [8]): 130 pg/10^4 cells

Internalization of Peptide-peroxidase (HeLa; Table 9, 0.2 μg/ml conjugate): 4.7 pg/10^3 cells
Internalization of Peptide-peroxidase (3T3; Table 9, 0.2 μg/ml conjugate): 35 pg/10^3 cells
Substance: VKRGLKLRHVRPRVTRMDV (listed as Homo sapiens) [SEQ ID NO: 10]
Internalization of Peptide-peroxidase (H1299 cells [1]; Table 9): 10 pg/10^3 cells
intracellular cytochemical coloration (cells): intense coloration

Internalization of Peptide-peroxidase (HeLa; Table 9B, 0.2 μg/ml conjugate): 4.1 pg/10^3 cells
Internalization of Peptide-peroxidase (3T3; Table 9B, 0.2 μg/ml conjugate): 63.7 pg/10^3 cells
Substance: SEQ ID NO: 27: SEQ ID NO: 26 in which the amino acids are in configuration D ([dS][dE][dR][dK][dK][dR][dR][dR][dE][dS][dR][dK][dK][dR][dR][dR][dE][dS]; listed as Homo sapiens)
Internalization of Peptide-peroxidase (H1299 cells [1]; Table 9B): 59.1 pg/10^3 cells

Substance: VKRGLKL (listed as Homo sapiens) [SEQ ID NO: 1, Peptide reacting with heparin from human lipoprotein B]
intracellular cytochemical coloration (cells): do not give any positive intracellular cytochemical coloration
S-PO internalized (H1299 cells [5]; [9]): 3 pg/10^4 cells

Internalization of Peptide-peroxidase (HeLa; Table 9, 0.2 μg/ml conjugate): 4.4 pg/10^3 cells
Internalization of Peptide-peroxidase (3T3; Table 9, 0.2 μg/ml conjugate): 20.3 pg/10^3 cells
Substance: AKTGKRKRSG [SEQ ID NO: 36]
Internalization of Peptide-peroxidase (H1299 cells [1]; Table 9): 10.6 pg/10^3 cells
Kd [2]: 0.301 µM
Kd [3]: 0.205 µM
Kd [4]: 0.287 µM

Internalization of Peptide-peroxidase (HeLa; Table 9B, 0.2 μg/ml conjugate): 8.7 pg/10^3 cells
Internalization of Peptide-peroxidase (3T3; Table 9B, 0.2 μg/ml conjugate): 75.9 pg/10^3 cells
Substance: SEQ ID NO: 31: homolog of SEQ ID NO: 30 with amino acid sequence in the reverse position (b233 says SEQ ID NO: 12) (PDRKKGLKGKKKRKKG; (1)..(16) The amino acids are in front-back position; listed as Homo sapiens)
Internalization of Peptide-peroxidase (H1299 cells [1]; Table 9B): 70.6 pg/10^3 cells

Substance: SEQ ID NO: 18: Peptide reacting with heparin derived from the amino acid sequence of agrine (KSRK; listed as Homo sapiens)
intracellular cytochemical coloration (cells): do not give any positive intracellular cytochemical coloration
S-PO internalized (H1299 cells [5]; [9]): 3 pg/10^4 cells

Internalization of Peptide-peroxidase (HeLa; Table 9B, 0.2 μg/ml conjugate): 7.7 pg/10^3 cells
Internalization of Peptide-peroxidase (3T3; Table 9B, 0.2 μg/ml conjugate): 50 pg/10^3 cells
Substance: SEQ ID NO: 32: SEQ ID NO: 30 in which the amino acids are in configuration D (G[dK][dR][dK][dK][dK]G[dK][dL]G[dK][dK][dR][dD]; listed as Homo sapiens)
Internalization of Peptide-peroxidase (H1299 cells [1]; Table 9B): 56.7 pg/10^3 cells

Substance: SEQ ID NO: 8: Peptide corresponding to the hypervariable CD3 region of human anti-DNA monoclonal antibody RTT79 (VRRSGRVVVPAAPRNRD; listed as Homo sapiens)
intracellular cytochemical coloration (cells): Faint coloration
S-PO internalized (H1299 cells [5]; [7]): 50 pg/10^4 cells
S-PO internalized (H1299 cells [5]; [8]): 1310 pg/10^4 cells
